# According to patent US4761478A, “3-deazaguanine sulfonic acid salts” (Warner-Lambert Company, priority 1986, dated 1988):
# “Also recorded” adds a separate entry of the source. Where a name gives a salt, the structure may show the parent alone. Read-outs that look alike come from different tables or passages of the source.
# How the values were obtained:
# [1] = trimetrexate acid addition salts in water; data from U.S. Pat. No. 4,376,858; cited from earlier work
# [2] = Water solubility of 3-deazaguanine and its acid addition salts (Table I); format: physicochemical; details: for Solubility: 3-deazaguanine salts in water; for water solubility (in words) / ml Water Needed to Dissolve: 3-deazaguanine salts; for ml Water Needed to Dissolve: 250 mg 3-deazaguanine plus one equivalent weight of the acid, water added until complete solution
# Procedure: The common acids employed for the formulation of acid addition salts of pharmaceutical bases are listed in J. Pharm. […] The solubility values presented in Table I were determined as follows: 3-deazaguanine (250 mg) was suspended in a small volume of water and one equivalent weight of the acid was added with stirring. Stirring was continued and small volumes of water were added intermittently until complet solution was obtained.
# [3] = Solubility of trimetrexate acid addition salts in water (Table II); format: physicochemical; details: decreasing order of solubility
# [4] = Aqueous solution of 3-deazaguanine methanesulfonate salt remaining clear and free of precipitate; format: physicochemical; details: in water
# Procedure: To a slurry of 24.5 g of 6-amino-1,5-dihydro-4H-imidazo-[4,5-c]pyridin-4-one (3-deazaguanine) in 250 ml of methyl alcohol was added a solution of 17.0 g of methanesulfonic acid in 50 ml of methyl alcohol. The mixture was stirred at room temperature for about 10 minutes, filtered, and the filter cake washed with methyl alcohol to give, after drying, 35.5 g (88%) of 3-deazaguanine methanesulfonate salt, mp 273°-275° C. This material produced a solution in water at a concentration of 41 mg/ml which remained clear and free of any precipitate for more than three days.
# [5] = Relative solubility of m-AMSA acid addition salts (Table III); format: physicochemical
# [6] = Chemical stability of the sodium salt of 3-deazaguanine in aqueous solution; format: physicochemical; details: aqueous solution of sodium salt of 3-deazaguanine
Structure (SMILES),Solubility [1] [mg/mL],Solubility [2] [mg/mL],ml Water Needed to Dissolve [2] [mL],further results
COc1cc(NCc2ccc3nc(N)nc(N)c3c2C)cc(OC)c1OC [2-Naphthalenesulfonic],0.15,,,
COc1cc(NCc2ccc3nc(N)nc(N)c3c2C)cc(OC)c1OC [Ethoxyacetic],19.5,,,
Nc1cc2nc[nH]c2c(=O)[nH]1 [H2 SO4],,0.8 to 1.0,250 to 300,"water solubility (in words) ([2]; water, listed as sulfate): poorly soluble; water solubility (in words) ([2]; water, listed as sulfate salt): lower solubility; solubility relative to the corresponding free base ([2]; sulfate salt of 3-deazaguanine vs free base): about one-half"
Nc1cc2nc[nH]c2c(=O)[nH]1 [H3 PO4],,1.9 to 2.1,120 to 130,
Nc1cc2nc[nH]c2c(=O)[nH]1 [HCl],,3.3 to 3.8,65 to 75,
Nc1cc2nc[nH]c2c(=O)[nH]1 [Maleic],,1.6 to 1.7,150 to 160,
"CS(=O)(=O)O.Nc1cc2nc[nH]c2c(=O)[nH]1 [Methanesulfonic, 3-deazaguanine methanesulfonate salt]",9.83,,5,"order of solubility among the trimetrexate salts tested [3]: sixth; water solubility (in words) ([2]; water): solubility advantage; Solubility ([2]; water, read-out: Solubility): 50 mg/mL; time the solution remained clear and free of any precipitate ([4]; 41 mg/ml): more than three; Solubility ([4]; read-out: concentration of solution produced in water): 41 mg/mL; solubility compared with other m-AMSA salts (in words) [5]: one of the least soluble salts"
COc1cc(NCc2ccc3nc(N)nc(N)c3c2C)cc(OC)c1OC [p-Toluenesulfonic],1.73,,,
Nc1cc2nc[nH]c2c(=O)[nH]1 [sodium salt],,,,chemical stability in aqueous solution (in words) [6]: tend to begin to degrade within a few hours of formulation; also recorded: chemically unstable
